According to ChEMBL document CHEMBL1201862, “PubChem BioAssay data set” (2004):
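All cell lines were grown in 96-well plates and treated with compound for 48 hours. GI50 = concentration required for 50% inhibition of growth.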 Activity calls are given as the source filed them. No stated cut-off is given here; in the data, active = GI50 up to about 1.1 µM and inactive = higher.

Columns and labels:
Assay in all cases: NCI tumour cell line growth inhibition, 48 h
[1] = tested on: SF-539
[2] = tested on: RXF 393
[3] = tested on: HOP-92
[4] = tested on: SK-MEL-5
[5] = tested on: SR
[6] = tested on: DLD-1
[7] = tested on: SK-MEL-28
[8] = tested on: HL-60
[9] = tested on: TK-10
[10] = tested on: RPMI-8226
[11] = tested on: U-251
[12] = tested on: SK-MEL-2
[13] = tested on: Malme-3M
[14] = tested on: HCT-15
[15] = tested on: HOP-18
[16] = tested on: HCC 2998
[17] = tested on: HT-29
[18] = tested on: OVCAR-8
[19] = tested on: M14
[20] = tested on: KM12
[21] = tested on: DMS-114
[22] = tested on: RXF 631
[23] = tested on: UACC-257
[24] = tested on: SF-295
[25] = tested on: A549
[26] = tested on: SK-OV-3
[27] = tested on: K562
[28] = tested on: OVCAR-5
[29] = tested on: SNB-78
[30] = tested on: CAKI-1
[31] = tested on: HCT-116
[32] = tested on: ACHN
[33] = tested on: OVCAR-4
[34] = tested on: NCI-H522
[35] = tested on: MOLT-4
[36] = tested on: SNB-19
[37] = tested on: NCI-H226
[38] = tested on: SF-268
[39] = tested on: CCRF-CEM
[40] = tested on: 786-0
[41] = tested on: XF498
[42] = tested on: OVCAR-3
[43] = tested on: HOP-62
[44] = tested on: M19-MEL
[45] = tested on: SW-620
[46] = tested on: LXFL 529
[47] = tested on: IGROV-1
[48] = tested on: SN12C
[49] = tested on: EKVX
[50] = tested on: UACC-62
[51] = tested on: NCI-H23
[52] = tested on: KM-20L2
[53] = tested on: LOX IMVI
[54] = tested on: UO-31
[55] = tested on: NCI-H460

COC(=O)C(CC=O)C(=O)C(=O)Nc1cccc(C(F)(F)F)c1 (stereo not given)
GI50 [1]: > 100 µM (inactive)
GI50 [2]: > 100 µM (inactive)
GI50 [3]: > 100 µM (inactive)
GI50 [4]: > 100 µM (inactive)
GI50 [5]: > 100 µM (inactive)
GI50 [6]: > 100 µM (inactive)
GI50 [7]: > 100 µM (inactive)
GI50 [8]: > 100 µM (inactive)
GI50 [9]: > 100 µM (inactive)
GI50 [10]: > 100 µM (inactive)
GI50 [11]: > 100 µM (inactive)
GI50 [12]: > 100 µM (inactive)
GI50 [13]: > 100 µM (inactive)
GI50 [14]: > 100 µM
GI50 [15]: > 100 µM (inactive)
GI50 [16]: > 100 µM (inactive)
GI50 [17]: > 100 µM (inactive)
GI50 [18]: > 100 µM (inactive)
GI50 [19]: > 100 µM (inactive)
GI50 [20]: > 100 µM (inactive)
GI50 [21]: > 100 µM (inactive)
GI50 [22]: > 100 µM (inactive)
GI50 [23]: > 100 µM (inactive)
GI50 [24]: > 100 µM (inactive)
GI50 [25]: > 100 µM (inactive)
GI50 [26]: > 100 µM (inactive)
GI50 [27]: > 100 µM (inactive)
GI50 [28]: > 100 µM (inactive)
GI50 [29]: > 100 µM (inactive)
GI50 [30]: > 100 µM (inactive)
GI50 [31]: > 100 µM (inactive)
GI50 [32]: > 100 µM (inactive)
GI50 [33]: > 100 µM (inactive)
GI50 [34]: > 100 µM (inactive)
GI50 [35]: > 100 µM (inactive)
GI50 [36]: > 100 µM (inactive)
GI50 [37]: > 100 µM (inactive)
GI50 [38]: > 100 µM (inactive)
GI50 [39]: > 100 µM (inactive)
GI50 [40]: > 100 µM (inactive)
GI50 [41]: > 100 µM (inactive)
GI50 [42]: > 100 µM (inactive)
GI50 [43]: > 100 µM (inactive)
GI50 [44]: > 100 µM (inactive)
GI50 [45]: > 100 µM (inactive)
GI50 [46]: > 100 µM (inactive)
GI50 [47]: > 100 µM (inactive)
GI50 [48]: > 100 µM (inactive)
GI50 [49]: > 100 µM (inactive)
GI50 [50]: > 100 µM (inactive)
GI50 [51]: > 100 µM (inactive)
GI50 [52]: > 100 µM (inactive)
GI50 [53]: > 100 µM (inactive)
GI50 [54]: > 100 µM (inactive)
GI50 [55]: > 100 µM (inactive)
